How the values were obtained:
hGIIE N21W = molecular target: T1, hGIIE N21W (Homo sapiens, UniProt Q9NZK7, N40W); test: Inhibition of hGIIE mutant N21W, sPLA2 assay kit; format: biochemical; conditions: N21W enzyme 30 µM; mean ± s.d., n=2; read-out: IC50 against hGIIE N21W
T1 construct: The gene encoding for hGIIE protein without signal peptide was amplified by PCR; made in house; host or cells: Pichia pastoris X33 (vector pGAPZαA)
T1 sequence (Q9NZK7 20-142 N40W): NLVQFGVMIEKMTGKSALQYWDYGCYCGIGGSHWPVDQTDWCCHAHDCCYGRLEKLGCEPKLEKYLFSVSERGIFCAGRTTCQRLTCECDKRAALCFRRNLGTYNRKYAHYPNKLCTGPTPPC
Protocol: (§1) Enzymatic Kinetics of hGIIE assay was carried out using sPLA2 Assay kit (Cayman, Ann Arbor, MI, USA). Substrate of this assay is 1, 2-Diheptanoyl Thio-phosphatidylcholine (DTPC). After hydrolysis of the thio ester bond in the sn-2 position by phospholipase A2, free thiols are detected using 5, 5-dithio-bis-nitrobenzoic acid (DTNB). Activity assay was carried out on a 96-well plate at 25 °C. 10 µL DTNB, 10 µL protein sample and 5 µL buffer (25 mM Tris-HCl, pH 7.5, 10 mM CaCl2, 100 mM KCl, 0.3 mM Triton X-100) were pooled in the well, then the reaction was initiated by adding 200 µL substrate solution to the well simultaneously. Absorbance at 414 nm was measured every 1 min for 15 min. […] Protein concentration was adjusted to ensure the absorbance increase of 0.01 to 0.1 per minute. Curve was fitted to Michaelis-Menten equation and Lineweaver-Burk plot for the estimation of Km and Vmax using GraphPad Prism 5, Kcat was calculated by Vmax/enzyme concentration.
(§2) Inhibition of wild type (WT) and mutated hGIIE was analyzed using sPLA2 assay kit as mentioned above. In the assay system, 5 µL assay buffer was replaced by 5 µL of the inhibitor. Different concentrations of compound 8, 14, 24, Me-Indoxam, and LY311727 were prepared. The final concentration of enzyme used per well are as following: WT: 6.42 µM; F5L: 6.4 µM; F97L: 10.48 µM; F5L_F97L: 6.73 µM; G6H: 10.91 µM; G6N: 7.56 µM; N21G: 32.86 µM; N21M: 22.14 µM; N21W: 30 µM. Control reactions without enzyme or inhibitor were carried out. Percent inhibition of every well were calculated. Curve was fitted to the log (inhibitor)-response variable slope and IC50 was calculated using GraphPad Prism 5 (GraphPad).

hGIIE N21G = molecular target: T2, hGIIE N21G (Homo sapiens, UniProt Q9NZK7, N40G); test: Inhibition of hGIIE mutant N21G, sPLA2 assay kit; format: biochemical; conditions: N21G enzyme 32.86 µM; mean ± s.d., n=2; read-out: IC50 against hGIIE N21G
T2 construct: The gene encoding for hGIIE protein without signal peptide was amplified by PCR; made in house; host or cells: Pichia pastoris X33 (vector pGAPZαA)
T2 sequence (Q9NZK7 20-142 N40G): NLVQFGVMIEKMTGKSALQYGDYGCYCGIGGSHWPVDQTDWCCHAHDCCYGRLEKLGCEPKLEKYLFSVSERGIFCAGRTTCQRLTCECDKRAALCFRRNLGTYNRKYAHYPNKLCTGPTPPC
Protocol: as §1, §2

hGIIE G6N = molecular target: T3, hGIIE G6N (Homo sapiens, UniProt Q9NZK7, G25N); test: Inhibition of hGIIE mutant G6N, sPLA2 assay kit; format: biochemical; conditions: G6N enzyme 7.56 µM; mean ± s.d., n=2; read-out: IC50 against hGIIE G6N
T3 construct: The gene encoding for hGIIE protein without signal peptide was amplified by PCR; made in house; host or cells: Pichia pastoris X33 (vector pGAPZαA)
T3 sequence (Q9NZK7 20-142 G25N): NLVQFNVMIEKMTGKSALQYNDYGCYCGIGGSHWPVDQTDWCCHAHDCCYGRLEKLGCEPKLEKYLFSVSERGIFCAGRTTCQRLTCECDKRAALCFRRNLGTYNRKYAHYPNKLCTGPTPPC
Protocol: as §1, §2

hGIIE N21M = molecular target: T4, hGIIE N21M (Homo sapiens, UniProt Q9NZK7, N40M); test: Inhibition of hGIIE mutant N21M, sPLA2 assay kit; format: biochemical; conditions: N21M enzyme 22.14 µM; mean ± s.d., n=2; read-out: IC50 against hGIIE N21M
T4 construct: The gene encoding for hGIIE protein without signal peptide was amplified by PCR; made in house; host or cells: Pichia pastoris X33 (vector pGAPZαA)
T4 sequence (Q9NZK7 20-142 N40M): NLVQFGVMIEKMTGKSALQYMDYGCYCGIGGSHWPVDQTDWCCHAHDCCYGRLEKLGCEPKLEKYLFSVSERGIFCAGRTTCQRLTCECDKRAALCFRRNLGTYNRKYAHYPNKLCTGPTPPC
Protocol: as §1, §2

hGIIE F5L_F97L = molecular target: T5, hGIIE F5L_F97L (Homo sapiens, UniProt Q9NZK7, F116L/F24L); test: Inhibition of hGIIE double mutant F5L_F97L, sPLA2 assay kit; format: biochemical; conditions: F5L_F97L enzyme 6.73 µM; mean ± s.d., n=2; read-out: IC50 against hGIIE F5L_F97L
T5 construct: The gene encoding for hGIIE protein without signal peptide was amplified by PCR; made in house; host or cells: Pichia pastoris X33 (vector pGAPZαA)
T5 sequence (Q9NZK7 20-142 F24L/F116L): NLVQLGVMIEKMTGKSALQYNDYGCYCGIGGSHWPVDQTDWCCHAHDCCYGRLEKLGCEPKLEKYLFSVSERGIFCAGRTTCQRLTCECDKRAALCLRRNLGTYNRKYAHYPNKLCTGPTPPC
Protocol: as §1, §2

hGIIE F5L = molecular target: T6, hGIIE F5L (Homo sapiens, UniProt Q9NZK7, F24L); test: Inhibition of hGIIE mutant F5L, sPLA2 assay kit; format: biochemical; conditions: F5L enzyme 6.4 µM; mean ± s.d., n=2; read-out: IC50 against hGIIE F5L
T6 construct: The gene encoding for hGIIE protein without signal peptide was amplified by PCR; made in house; host or cells: Pichia pastoris X33 (vector pGAPZαA)
T6 sequence (Q9NZK7 20-142 F24L): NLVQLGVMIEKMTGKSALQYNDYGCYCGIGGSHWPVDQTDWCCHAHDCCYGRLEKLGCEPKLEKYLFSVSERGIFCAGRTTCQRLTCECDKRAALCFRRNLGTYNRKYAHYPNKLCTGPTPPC
Protocol: as §1, §2

WT hGIIE = molecular target: T7, WT hGIIE (Homo sapiens, UniProt Q9NZK7); test: Inhibition of wild type hGIIE, sPLA2 assay kit (DTPC substrate, DTNB detection); format: biochemical; conditions: WT enzyme 6.42 µM per well; mean ± s.d., n=2; read-out: IC50 against WT hGIIE
T7 construct: The gene encoding for hGIIE protein without signal peptide was amplified by PCR; made in house; host or cells: Pichia pastoris X33 (vector pGAPZαA)
T7 sequence (Q9NZK7 20-142): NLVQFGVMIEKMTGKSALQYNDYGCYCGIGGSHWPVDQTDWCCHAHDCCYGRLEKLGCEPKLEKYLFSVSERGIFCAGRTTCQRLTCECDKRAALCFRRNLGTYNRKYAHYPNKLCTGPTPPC
Protocol: as §1, §2

hGIIE G6H = molecular target: T8, hGIIE G6H (Homo sapiens, UniProt Q9NZK7, G25H); test: Inhibition of hGIIE mutant G6H, sPLA2 assay kit; format: biochemical; conditions: G6H enzyme 10.91 µM; mean ± s.d., n=2; read-out: IC50 against hGIIE G6H
T8 construct: The gene encoding for hGIIE protein without signal peptide was amplified by PCR; made in house; host or cells: Pichia pastoris X33 (vector pGAPZαA)
T8 sequence (Q9NZK7 20-142 G25H): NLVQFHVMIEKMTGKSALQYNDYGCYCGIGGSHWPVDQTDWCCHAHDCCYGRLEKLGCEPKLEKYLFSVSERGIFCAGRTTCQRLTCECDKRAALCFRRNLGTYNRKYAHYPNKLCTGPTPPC
Protocol: as §1, §2

hGV = conditions: cited from earlier work
hGIIE F97L = molecular target: T9, hGIIE F97L (Homo sapiens, UniProt Q9NZK7, F116L); test: Inhibition of hGIIE mutant F97L, sPLA2 assay kit; format: biochemical; conditions: F97L enzyme 10.48 µM; mean ± s.d., n=2; read-out: IC50 against hGIIE F97L
T9 construct: The gene encoding for hGIIE protein without signal peptide was amplified by PCR; made in house; host or cells: Pichia pastoris X33 (vector pGAPZαA)
T9 sequence (Q9NZK7 20-142 F116L): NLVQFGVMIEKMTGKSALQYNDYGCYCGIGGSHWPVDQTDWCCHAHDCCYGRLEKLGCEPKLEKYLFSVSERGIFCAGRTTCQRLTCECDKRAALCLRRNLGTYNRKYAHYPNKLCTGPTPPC
Protocol: as §1, §2

hGIIE = molecular target: T10, hGIIE (Homo sapiens, UniProt Q9NZK7); conditions: read-out: IC50 hGIIE; cited from earlier work
T10 construct: The gene encoding for hGIIE protein without signal peptide was amplified by PCR; made in house; host or cells: Pichia pastoris X33 (vector pGAPZαA)
T10 sequence (Q9NZK7 20-142): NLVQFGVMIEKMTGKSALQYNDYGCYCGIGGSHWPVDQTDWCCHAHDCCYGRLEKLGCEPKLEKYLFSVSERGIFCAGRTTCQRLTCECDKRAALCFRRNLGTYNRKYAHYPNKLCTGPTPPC

hGIID = test system: hGIID; parameters: method as in PMID 15028265; conditions: cited from earlier work
hGX = conditions: cited from earlier work

Compound | IC50 (hGIIE N21W) | IC50 (hGIIE N21G) | IC50 (hGIIE G6N) | IC50 (hGIIE N21M) | IC50 (hGIIE F5L_F97L) | IC50 (hGIIE F5L) | IC50 (WT hGIIE) | IC50 (hGIIE G6H) | IC50 (hGV) | IC50 (hGIIE F97L) | IC50 (hGIIE) | decreased effect against hGIID in comparison to hGIIE (hGIID) | decreased effect against hGX than hGIIE (hGX)
Cc1c(C(=O)C(N)=O)c2c(OCC(=O)O)cccc2n1Cc1cccc2ccccc12 [Compound 8] | 1270 ± 220 nM | 630 ± 20 nM | 630 ± 50 nM | 1050 ± 20 nM | 250 ± 40 nM | 250 ± 60 nM | 280 ± 30 nM | 3760 ± 860 nM | < 330 nM | 480 ± 30 nM | < 25 nM | – | –
Cc1c(C(=O)C(N)=O)c2c(OCC(=O)O)cccc2n1Cc1cccc(Br)c1 [Compound 14] | 1940 ± 220 nM | 1730 ± 50 nM | 230 ± 30 nM | 840 ± 30 nM | 300 ± 20 nM | 130 ± 40 nM | 220 ± 20 nM | 880 ± 310 nM | < 330 nM | 280 ± 70 nM | < 25 nM | – | –
Cc1c(C(=O)C(N)=O)c2c(OCC(=O)O)cccc2n1Cc1ccccc1C(F)(F)F [Compound 24] | 1870 ± 180 nM | 2390 ± 400 nM | 270 ± 30 nM | 830 ± 220 nM | 140 ± 10 nM | 110 ± 10 nM | – | 540 ± 30 nM | < 330 nM | 250 ± 20 nM | < 25 nM | over 100 fold | about 50 fold
CCc1c(CC(N)=O)c2cc(OCCCP(=O)(O)O)ccc2n1Cc1ccccc1 [LY311727] | 18000 ± 1370 nM | 5130 ± 1070 nM | 3070 ± 420 nM | 5980 ± 400 nM | 1000 ± 220 nM | 1790 ± 140 nM | – | 14300 ± 390 nM | – | 1120 ± 20 nM | – | – | –
